Source: US20260125425A1, “Carrier Peptide Fragment and Use Thereof” (TOAGOSEI CO., LTD., priority 2022, published 2026)
Primed or numbered codes have the meaning given here. FAM″ = C-terminal FAM dye

System: HeLa cells
Assay: cell membrane permeability in HeLa cells by flow cytometer
Type: cell-based, human
Settings: 20-hour incubation; for MFI (median fluorescence intensity): 10 µM in culture solution, 0.5% DMSO, 37° C., FL2 detector
Method: As the eukaryotic cells, HeLa cells (established cell strain derived from a human cervical cancer cell) were used and the cell membrane permeability of the sample 1 was evaluated. In Example 1, the prepared sample solution I was used, and in Example 12, the FAM solution was used.
The HeLa cell was cultured in 10% fetal bovine serum (FBS)-containing Dulbecco's modified Eagle's medium (DMEM (Cat No. 044-29765, manufactured by FUJIFILM Wako Pure Chemical Corporation)), which is a culture medium.
The HeLa cell that adhered to a culture plate was cleaned with PBS and then, a 0.25%-trypsin/EDTA solution was added thereto, and incubation was performed for three minutes at 37° C. After the incubation, the aforementioned 10% FBS-containing DMEM was added to deactivate trypsin and then, five-minute centrifugal separation was performed at 150×g to precipitate the cells. After the supernatant generated by the centrifugal separation was removed, the 10% FBS-containing DMEM was added to the precipitate (cell pellet) to prepare a cell suspension of about 2×10^5 cells/mL. The cell suspension was added by 1 mL to a well of a commercially available six-hole (well) plate (manufactured by AGC TECHNO GLASS Co., Ltd.) so as to seed the cell (about 2× 10^5 cells/well). In addition, the 2 mM sample solution 1 was diluted with the 10% FBS-containing DMEM to prepare the sample solution 1 in which the concentration of the sample 1 was 20 μM. […]
Regarding the obtained cells (cell pellet), the cell membrane permeability of the sample 1 was analyzed using a flow cytometer. […]
Using the aforementioned flow cytometer, gating based on forward scatter (FSC) and side scatter (SSC) was performed to set a gate about a cell group to be analyzed, and the fluorescence intensity was measured about the cell group in this gate. […] The fluorescence intensity was measured using a fluorescence detector FL2 of the flow cytometer (optimum detection wavelength around 543 nm) capable of detecting the fluorescence wavelength of FAM. […]

Substance	MFI (median fluorescence intensity)	flow cytometer histogram (FIG. 1), cell membrane permeability (10 µM, compared to FAM alone (Example 2))
Ac-RKLAVYWSTYKRSR-FAM (Ac-RKLAVYWSTYKRSR-{FAM″}) [Example 1]	14.5	shifted to the right side compared to the histogram according to Example 2
5 (6)-carboxyfluorescein [Example 2, reference compound]	10.6	–
